Assay: molar heat capacity at constant pressure; xn = mol fraction of the nth substance listed
Conditions: 101 kPa, Liquid, Small sample (50 mg) DSC, x2 = 0

O [water] + CCCCCC[n+]1ccc2ccccc2c1.N#C[S-]
Conditions | molar heat capacity at constant pressure [J/K/mol]
288.15 K | 75.9
293.15 K | 75.8
298.15 K | 75.7
303.15 K | 75.7
308.15 K | 75.6
313.15 K | 75.5
318.15 K | 75.5
323.15 K | 75.4
328.15 K | 75.4
333.15 K | 75.3
338.15 K | 75.3
343.15 K | 75.3

From the NIST ThermoML archive (doi:10.1016/j.jct.2012.06.030)
